Consider five compounds from ChEMBL document CHEMBL4725220, “Small molecule inhibitors of IκB kinase β: A chip-based screening and molecular docking simulation” (Bioorg Med Chem, 2020).

The structures appear in SMILES notation.

In the assay the target is T1, Inhibitor of nuclear factor kappa-B kinase subunit beta (Homo sapiens, UniProt O14920).
T1 sequence (O14920 whole entry): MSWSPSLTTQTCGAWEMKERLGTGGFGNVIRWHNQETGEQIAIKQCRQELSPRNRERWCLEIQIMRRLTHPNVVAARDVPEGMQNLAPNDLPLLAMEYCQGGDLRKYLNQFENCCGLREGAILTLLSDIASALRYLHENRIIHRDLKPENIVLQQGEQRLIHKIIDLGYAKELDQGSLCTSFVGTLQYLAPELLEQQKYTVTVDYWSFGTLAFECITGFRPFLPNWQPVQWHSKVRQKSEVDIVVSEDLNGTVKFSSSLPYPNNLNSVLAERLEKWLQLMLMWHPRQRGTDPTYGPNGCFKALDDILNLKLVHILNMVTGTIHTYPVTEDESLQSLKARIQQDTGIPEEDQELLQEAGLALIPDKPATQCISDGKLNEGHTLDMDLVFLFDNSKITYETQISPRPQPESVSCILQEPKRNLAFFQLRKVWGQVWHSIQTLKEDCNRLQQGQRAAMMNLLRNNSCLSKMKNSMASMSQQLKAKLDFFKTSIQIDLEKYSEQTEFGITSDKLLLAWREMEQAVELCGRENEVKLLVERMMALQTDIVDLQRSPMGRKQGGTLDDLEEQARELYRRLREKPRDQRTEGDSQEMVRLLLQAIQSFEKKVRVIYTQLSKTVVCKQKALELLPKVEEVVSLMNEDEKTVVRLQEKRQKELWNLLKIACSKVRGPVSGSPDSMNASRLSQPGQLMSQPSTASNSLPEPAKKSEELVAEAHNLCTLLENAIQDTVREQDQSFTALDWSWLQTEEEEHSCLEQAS
Briefly: Inhibition of IKKbeta (unknown origin) assessed as substrate phosphorylation using IkappaBalpha as substrate incubated for 1 hr in presence of ATP by chip-based fluorescence assay.
With `O=C(c1ccc(Nc2nccc(-c3cc4ccccc4s3)n2)cc1)N1CCC(N2CCCC2)CC1`, the IC50 turned out to be 6.46 µM.
The figure for `O=C1C=C2C[C@]3(O)COc4c(ccc(O)c4O)C3=C2C=C1O` is 2.18 µM; for `O=C(O)C1=CC(=C(c2ccc(O)c(C(=O)O)c2)c2ccc(O)c(C(=O)O)c2)C=CC1=O` [AURINTRICARBOXYLIC ACID] it is 5.4 µM; for `COc1ccc(-c2cc(=O)c3c(O)cc(O[C@@H]4O[C@H](CO[C@@H]5O[C@@H](C)[C@H](O)[C@@H](O)[C@H]5O)[C@@H](O)[C@H](O)[C@H]4O)cc3o2)cc1O` [DIOSMIN] it is 3.89 µM.
With `O=c1oc2c(O)c(O)cc3c(=O)oc4c(O)c(O)cc1c4c23` [ELLAGIC ACID], the IC50 amounted to 1.98 µM.

The term IC50 denotes the midpoint of a concentration-inhibition curve.
